# Results as given in patent US7732493B2, “2-substituted D-homo-estra-1,3,5(10)-trienes as inhibitors of 17β-hydroxy steroid dehydrogenase type 1” (Bayer Schering Pharma Aktiengesellschaft, priority 2004, dated 2010).
# Target: T1, human 17β-hydroxy steroid dehydrogenase type 1 (17β-HSD1) (Homo sapiens, UniProt P14061)
# T1 construct: made in house; host or cells: E. coli
# T1 sequence (P14061 1-328): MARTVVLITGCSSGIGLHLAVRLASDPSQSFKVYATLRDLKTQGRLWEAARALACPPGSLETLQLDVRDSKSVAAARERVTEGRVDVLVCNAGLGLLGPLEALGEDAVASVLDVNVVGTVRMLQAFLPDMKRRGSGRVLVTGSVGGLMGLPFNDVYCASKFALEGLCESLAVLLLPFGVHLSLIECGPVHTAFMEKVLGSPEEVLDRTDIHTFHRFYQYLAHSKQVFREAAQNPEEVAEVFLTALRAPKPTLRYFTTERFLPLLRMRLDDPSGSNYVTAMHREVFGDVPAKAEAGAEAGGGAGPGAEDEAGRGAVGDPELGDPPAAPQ
# Test: Inhibition of the activity of human 17β-hydroxy steroid dehydrogenase type 1 (3H-labeled substrate conversion, HPLC)
# Format: biochemical
# Conditions: human enzyme over-expressed in E. coli, bacterial suspension, 37° C., double determination; read-out: 17βHSD1 IC50
# Source text: The test process is well described in the literature [Adamski, J., Sierralta, W. D., Jungblut, P. W., Acta Endocrinol (Copenh.) 121(2) (1989), 161-7] and is depicted below.
# Human 17β-hydroxy steroid dehydrogenases (17β-HSDs) are over-expressed in E. coli bacteria as His-Tag proteins or as GST-fusion proteins. The suspensions of the bacterial pellets in isotonic common salt solution are used for the determination of enzyme activities of the 17β-HSDs or for the study of their influence by potential inhibitors (estrogen derivatives).
# The measurements are made in double determination and, if necessary, at various concentrations of potential inhibitors (e.g., in determining the IC50 values). In addition to the target enzyme 17β-HSD1, other steroid-metabolizing enzymes are included in the test to study cross reactivities of estrogen derivatives.
# The incubation of the samples is carried out at 37° C. in a water bath while being shaken, such that in the control (without substances to be tested), a conversion of about 30% is achieved.
# The separation of radiolabeled substrate and product is then carried out, after extraction with 1 ml of reversed phase-(RP-18)-cartridges, by means of HPLC on an RP18 column with acetonitrile:water 1:1 (v/v) as a mobile phase. The radioactivity is detected with the aid of a flow-scintillation counter.
# The evaluation of the substrate conversion with and without substances to be tested is performed by the integration of the substrate and product peaks. The conversion of the control is normalized to 100% conversion.
row,IC50 [µM],Compound
1,0.052,"2-Bromo-17a-oxo-17a-homoestra-1,3,5(10)-trien-3-ol [Example 3]"
2,0.052,"2-Iodo-17a-oxo-17a-homoestra-1,3,5(10)-trien-3-ol [Example 4]"
3,0.085,"COc1cc2c(cc1O)CC[C@@H]1[C@@H]2CC[C@]2(C)C(=O)CCC[C@@H]12 [Example 1, 2-Methoxy-17a-oxo-17a-homoestra-1,3,5(10)-trien-3-ol]"
4,0.024,"C=CCc1cc2c(cc1O)CC[C@@H]1[C@@H]2CC[C@]2(C)C(=O)CCC[C@@H]12 [Example 7, 2-Allyl-17a-oxo-17a-homoestra-1,3,5(10)-trien-3-ol]"
